Entries after “also recorded” stand apart in the source; their conditions may differ.
Legend:
[1] = test system: peptide-loaded T2 cells; test: Cytotoxicity assay (LDH) of peptide-specific patient T-cell cultures against peptide-loaded T2 cells; type: cell-based, human; details: for Peptide-specific lysis (Number of patients): patients of eleven HLA-A2-expressing prostate cancer patients with peptide-specific T cells after 2-4 in vitro stimulations; for Peptide-specific lysis of T2 cells by peptide-specific T-cells (FIG. 6): patient T-cell lines, three effector-to-target ratios
Protocol: (§1) Human prostate cancer patients underwent leukapheresis, and PBMCs were isolated using a Ficoll-Paque gradient (Pharmacia, Kirkland, Quebec). Immature dendritic cells (iDCs) were generated by incubating flask-adherent PBMCs with 20 ng/mL granulocyte-macrophage colony stimulating factor and 10 ng/mL interleukin four (IL-4) for six days at 37° C./5% CO2 (cytokines from: Fitzgerald Industries, Concord, Mass.). These iDCs were then treated with 150 ng/mL IL-6, 10 ng/mL IL-1β, 10 ng/mL tumor necrosis factor alpha (TNF-α), and […] prostaglandin E2 (Fitzgerald Industries) to generate mature dendritic cells (mDCs). These mDCs were then pulsed with 20 μg/mL AR LBD-derived peptide, and after being irradiated were co-incubated with CD4+ and CD8+ T-cells negatively isolated from autologous PBMCs (Invitrogen, Carlsbad, Calif.). After incubating for 24 hours, these cultures were then treated with 10 U/mL IL-2 and 30 U/mL IL-7 (Fitzgerald Industries), and incubated for another 6 days. These cultured T-cells were re-stimulated weekly using peptide-pulsed antigen presenting cells (either mDCs or the TK6 lymphoma cell line).
(§2) T-cell cultures that underwent at least two stimulations (or splenocyte cultures that had undergone one stimulation) were collected and incubated for four hours with target cells (either T2 cells pulsed for two hours with a specific or non-specific peptide, the LNCaP prostate cancer cell line, or media alone) at various effector-to-target ratios. After incubation, supernatants were collected and levels of lactate dehydrogenase were measured using the CytoTox 96 Non-Radioactive Assay (Promega). The relative percentage of peptide-specific lysis was quantitated using the following equation: […]
(§3) To characterize CD8+ T-cell responses to the AR LBD, the amino acid sequence of the AR LBD was evaluated for potential HLA-A2-binding epitopes that fit the consensus peptide binding sequence of X-L/M-X-X-X-V-X-X-V/L (SEQ ID NO:8), using the algorithm of Parker and colleagues (Parker K C et al., 1994, J. Immunol. 152:163-175). […] These peptides were synthesized and then characterized for their affinity for HLA-A2 in vitro using T2 binding assays. […] Peptide-specific T-cell lines were then cultured from the peripheral blood of 11 HLA-A2^+ patients with prostate cancer, using each of these peptides, and then tested for their cytolytic activity against both peptide-pulsed HLA-A2-expressing target cells and the HLA-A2^+ LNCaP prostate cancer cell line. Specifically, naive T cells were isolated by magnetic negative selection (Dynal) from the peripheral blood mononuclear cells (PBMCs) of HLA-A2-expressing prostate cancer patients, and cultured in the presence of autologous cytokine-matured irradiated dendritic cells (mDC) that had been loaded with individual peptides. These cultures received interleukin 2 (IL-2) and IL-7 the day after the culture, and were re-stimulated weekly with peptide-pulsed mDCs. Beginning after two weeks of stimulation, the T-cell cultures were tested weekly for their cytolytic activity using peptide-loaded T2 cells as target cells. Peptide-specific T-cells could be cultured from the majority of patients to at least one of these peptides, and peptide-specific T-cell lines could be cultured from the majority (7/11) of HLA-A2-expressing patients against the AR811 peptide in particular (Table 2).
(§4) Table 2. Compiled results of T cell culturing and cytotoxicity assays. Shown in this table are the results obtained from cytotoxicity assays of T cell cultures from eleven HLA-A2-expressing patients with prostate cancer. In the second column is the number of patients for which peptide-specific T cells could be identified following 2-4 in vitro stimulations.

[2] = test system: HLA-A2+ LNCaP prostate cancer cell line; test: Cytotoxicity assay (LDH) of peptide-specific patient T-cell cultures against LNCaP; type: cell-based, human; design: key to Prostate cancer cell lysis: +: positive lysis; −: no lysis; +/−: inconclusive; details: for Prostate cancer cell lysis: peptide-specific T cells against HLA-A2+ LNCaP; for Lysis of the LNCaP cell line by peptide-specific T-cells (FIG. 6): patient T-cell lines, three effector-to-target ratios
Protocol: as §1, §2, §3, §4

[3] = test system: prostate cancer cell lines (LNCaP, MDA-Pca-2B, DU145); test: Cytotoxicity of AR811 CD8+ T-cell clone against prostate cancer cell lines, with HLA-A2 blocking antibody; type: cell-based, human; details: HLA-A2-negative DU145
Protocol: In addition, lysis was evaluated following pre-treatment of LNCaP with an HLA-A2 blocking monoclonal antibody (starburst). Shown is a cytotoxicity assay of an AR811 CD8+ cell clone. Cells were restimulated for seven days using peptide-pulsed antigen presenting cells, followed on day seven by a rest period of three days before they were analyzed for their cytotoxic activity.
To conduct a mini-cytotoxicity assay of limited-dilution clones, 50 μl (¼) of the cultured clones were incubated for four hours with either T2 cells pulsed with the specific peptide, a non-specific peptide, or media alone. For the subsequent characterization of CTL clone cytotoxicity against prostate cancer cells, cryopreserved CTL clones were thawed, washed 3 times, and restimulated by incubating the clones with peptide-pulsed irradiated TK6 cells for 7 days. These clones were then resuspended in 10 U/mL IL-2, and allowed to incubate for three days at 37° C./5% CO2. They were then analyzed for cytotoxicity (as described above) against four prostate cancer cell lines: LNCaP, DU145, LAPC4, and MDAPCa-2b cell lines. To characterize HLA-A2-restriction of observed cytotoxicity, a HLA-A2 antibody was added to the reaction (Clone BB7.2, BD Biosciences, 1 μg/mL).

[4] = test system: IFNγ and TNFα; test: Intracellular cytokine staining of AR811-specific T-cell clone; type: cell-based, human; details: clone restimulated with peptide, gated on CD3+/CD8+ cells
Protocol: A clonal T-cell line specific for the AR811 peptide was derived by limited dilution following multiple restimulations in vitro. This line was restimulated for 5 hours in vitro with T2 cells and media only (panel A), an irrelevant peptide (panel B), AR811 peptide (panel C), or PMA/Ionomycin (panel D). IFNγ and TNFα cytokine accumulation were assessed by intracellular flow cytometric analysis (Cytofix/cytoperm kit, BD Pharmingen). Cells were first stained for CD3 and CD8 expression and CD3+/CD8+ cells were analyzed for IFNγ and TNFα expression. Shown are the plots gated on CD3+/CD8+ cells.
After T-cell cultures containing AR LBD peptide-specific T-cells were identified, peptide-specific T-cell clones were isolated using limited-dilution cloning. Briefly, cultured T-cells were diluted to 400 cells/mL, and were diluted at a 1:1 ratio down the rows of a 96-well plate. These T-cells were mixed with 2×10^5 autologous PBMCs, as well as an anti-CD3 antibody (Clone UCHT1, BD Biosciences, 120 ng/mL) and IL-2 (Fitzgerald Industries, 200 U/mL), and were incubated at 37° C./5% CO2 for 12-14 days. Cultures generated from a single cell were identified, and their peptide-specificity was analyzed using a mini-cytotoxicity assay (as above). […] After three additional days, expanded T-cell clones were analyzed for cytotoxicity against peptide-specific or non-specific T2-pulsed cells (as described above). […]

[5] = test system: T2 cells pulsed with the AR811 peptide; test: Immunization of HLA-A2/DR1 (HHD-II) mice with peptide, splenocyte CTL assay; type: in vivo; details: once 100 μg peptide in CFA, splenocytes after one week

Row | Sequence | Peptide-specific lysis (Number of patients) [1] | Prostate cancer cell lysis [2] | Lysis of prostate cancer cells by AR811 T-cell clone, HLA-A2 restriction (FIG. 8) [3] | Peptide-specific lysis of T2 cells by peptide-specific T-cells (FIG. 6) [1] | IFNγ and TNFα secretion of peptide-specific T-cell clone (FIG. 7) [4] | Lysis of the LNCaP cell line by peptide-specific T-cells (FIG. 6) [2] | Peptide-specific CTL after immunization (FIG. 9) [5]
1 | ALLSSLNEL [AR700] | 1/11 | − |  |  |  |  | 
2 | FLCMKALLL [AR805] | 3/11 | +/− |  |  |  |  | 
3 | FSIIPVDGL [AR814] | 3/11 | − |  |  |  |  | 
4 | KLLDSVQPI [AR862] | 5/11 | − |  |  |  |  | 
5 | LGERQLVHVV [AR708] | 1/11 | − |  |  |  |  | 
6 | LLLFSIIPV [AR811] | 7/11 | + | lysed prostate cancer cells in an MHC class I-restricted fashion; also recorded: naturally processed HLA-A2-restricted T-cell epitope | lyse T2 cells in a peptide-specific fashion | secrete both IFNγ and TNFα in response to peptide stimulation; also recorded: secretes IFNγ and TNFα in response to peptide stimulation | could lyse the LNCaP cell line | AR811 peptide-specific CTL could be identified after immunization; also recorded: develop peptide-specific CTL
7 | QLTKLLDSV [AR859] | 2/11 | +/− |  | showed peptide-specific lysis |  | did not lyse the LNCaP cell line | 
8 | RMLYFAPDLV [AR761] | 6/11 | +/− |  |  |  |  | 
9 | VLEAIEPGV [AR677] | 2/11 | − |  |  |  |  | 
10 | WMGLMVFAM [AR742] | 2/11 | − |  |  |  |  | 

Reference: US10561716B2, “Prostate cancer vaccine” (Wisconsin Alumni Research Foundation, priority 2006, dated 2020)
